PubChem BioAssay (NCI)
Where “and” joins values, the source holds several entries; their conditions need not be identical. Equal entries are not always repeated.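 Interpolation was linear, between the two tested concentrations surrounding the appropriate level; five concentrations were tested over 48 hours in 96-well plates. At the GI50, growth is halved. TGI denotes the concentration required for complete inhibition of growth.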

Legend:
Assay in all cases: inhibition of tumour cell growth, NCI panel, 48 h
CAKI-1 renal = system: CAKI-1 renal
HCC-2998 colon = system: HCC-2998 colon
HCT-116 colon = system: HCT-116 colon
HOP-62 NSCLC = system: HOP-62 NSCLC
MCF7 breast = system: MCF7 breast
RPMI-8226 leukemia = system: RPMI-8226 leukemia
SR leukemia = system: SR leukemia
U251 CNS = system: U251 CNS
UACC-257 melanoma = system: UACC-257 melanoma
UO-31 renal = system: UO-31 renal

SMILES	GI50 (CAKI-1 renal)	TGI (CAKI-1 renal)	GI50 (HCC-2998 colon)	TGI (HCC-2998 colon)	GI50 (HCT-116 colon)	TGI (HCT-116 colon)	GI50 (HOP-62 NSCLC)	TGI (HOP-62 NSCLC)	GI50 (MCF7 breast)	TGI (MCF7 breast)	GI50 (RPMI-8226 leukemia)	TGI (RPMI-8226 leukemia)	GI50 (SR leukemia)	TGI (SR leukemia)	GI50 (U251 CNS)	TGI (U251 CNS)	GI50 (UACC-257 melanoma)	TGI (UACC-257 melanoma)	GI50 (UO-31 renal)	TGI (UO-31 renal)
COC(=O)c1cncc(/C=C/c2c(C)cc(O)cc2C)c1	> 16.2 µM	> 25 µM	13.3 µM	> 25 µM	14.2 µM	> 25 µM	9.82 µM	> 20.5 µM	11.5 µM	> 18.7 µM	9.03 µM	> 25 µM	2.67 µM	> 25 µM	> 16.7 µM	> 25 µM	14.6 µM	> 25 µM	14.5 µM	> 25 µM
O=C(/C=C/c1cccc(O)c1)c1cccc(-n2cc(-c3ccccc3)[nH]c2=O)c1	4.95 µM	10.5 µM	8.27 µM	20.2 µM	2.22 µM	–	4.27 µM	> 25.9 µM	2.29 µM	6.68 µM	2.16 µM	6.33 µM	1.51 µM	> 20.1 µM	1.56 µM	3.05 µM	8.89 µM	21.8 µM	1.99 µM	7.02 µM
COC(=O)CCCCC(=O)c1c(C)[nH]c(/C=C2\N=C(c3ccc[nH]3)C=C2OC)c1C	1.03 µM	2.49 µM	1.96 µM	4.19 µM	0.109 µM	–	0.475 µM	1.87 µM	0.723 µM	2.09 µM	0.428 µM	2.34 µM	0.029 µM	0.313 µM	0.868 µM	2.15 µM	1.73 µM	3.33 µM	0.334 µM	1.24 µM
Cc1cc(N=Nc2ccccc2C)ccc1N	7.38 µM	46.5 µM and 28.7 µM	22 µM	24.9 µM and 53.5 µM	13.2 µM	29.5 µM and 27.3 µM	15.2 µM	19.2 µM and 36.4 µM	16.5 µM	36.2 µM and 43.6 µM	1.69 µM	34.5 µM	8.49 µM	52.1 µM and 61.6 µM	–	35.7 µM and 30.4 µM	20.2 µM	38 µM and 44.9 µM	0.874 µM	13.2 µM and 11.3 µM
COC1C(N)C(OC2C(Oc3cccc4c(O)c5c(=O)oc6ccc(C)c7c(=O)oc(c34)c5c67)OC(C)C(O)C2(C)O)OC(C)C1O (configuration not stated)	–	1.45 µM	–	0.336 µM	–	0.118 µM	–	0.258 µM	–	1.31 µM	–	12.4 µM	–	8.12 µM	–	0.789 µM	–	0.277 µM	–	0.82 µM
Cn1cc(C2=C(c3cccc(OC[C@@H](O)CO)c3)C(=O)NC2=O)c2ccccc21	15.3 µM	> 25 µM	> 25 µM	> 25 µM	> 15.8 µM	> 25 µM	> 25 µM	> 25 µM	2.07 µM	> 25 µM	> 25 µM	> 25 µM	> 11.2 µM	> 25 µM	> 15.5 µM	> 25 µM	> 25 µM	> 25 µM	> 19.1 µM	> 25 µM
C#CCNC(=O)[C@H](CC)[C@H]1CC[C@H](C)[C@H]([C@@H](C)[C@H](O)[C@H](C)C(=O)[C@H](CC)C2O[C@]3(C=CC(=O)[C@]4(CC[C@@](C)([C@H]5CC[C@](O)(CC)[C@H](C)O5)O4)O3)[C@H](C)C[C@@H]2C)O1 (some centres not stated)	1.78 µM	7.02 µM	2.35 µM	5.89 µM	2.43 µM	7.66 µM	1.99 µM	4.91 µM	2.67 µM	12.2 µM	1.77 µM	4.9 µM	1.61 µM	5.37 µM	1.88 µM	3.93 µM	1.94 µM	4.88 µM	2.01 µM	7.81 µM
